Source: patent US11938106B2, “Treatment of tinnitus using glutamate receptor agonists” (Northeast Ohio Medical University, priority 2016, dated 2024)

How the values were obtained:
IC neurons = assay: Extracellular recording of neuronal firing in the inferior colliculus of awake mice before, during and after systemic drug injection; type: in vivo, mouse
Protocol: (§1) Adult CBA/CaJ mice were used for the study. […] Injection was performed remotely via an intravenous catheter inserted into the tail vein. Spontaneous firing rates of IC neurons were measured and compared before, during, and after of drug injection. To test whether this drug is affecting general sound processing in the auditory system of mice, the acoustic startle reflex and gap detection performance were also assessed.
(§2) The animals used were CBA/CaJ male mice, 8 months to 1.5 years old. Extracellular recording was carried out using Quartz micropipettes filled with 1M potassium acetate solution, 10-20 M ohms. Local field potential (LFP) was evaluated using a chronically implanted 4 channel multi-electrode array chronically implanted into IC in a freely moving animal via wireless recording system. For drug administration, the Group II mGluR agonist was administered via intravenous (3.5 mg/kg) or intraperitoneal (5 mg/kg) injections while recording neural activity. To evaluate startle input/output function, startle intensities were randomized within the range from 70 dB to 120 dB SPL. Startle was a broad band noise 20 ms duration. Inter-trial intervals were pseudo randomized between 15 and 25 sec. For gap detection, two trials were carried out. Trial I—The acoustic startle (110 dB SPL, 20 ms duration, wideband noise) imbedded in continuous background noise (65 dB SPL, third octave, centered at 10, 12.5, 16, 20, 25, and 31.5 kHz). Trial II—Trial I paired with a 20 ms gap embedded into background noise and presented 100 ms before the startle. Inter-trial intervals were pseudo randomized between 10 and 17 sec.

[1] = tested on: inferior colliculus (auditory midbrain); assay: Local field potentials (sound evoked activity) recorded in the IC of awake mice; type: in vivo, mouse; details: systemic administration, FIG. 13
Protocol: FIG. 13 provides graphs showing that a group II mGluR agonist enhances of sound evoked activity in the IC. Local field potentials (LFPs) recorded in the IC of awake mice in response to 30 ms wideband noise (1-100 kHz, 80 dB SPL) recorded before, 30 min and 90 min after drug administration. LFPs shown here were generated based on 130 repetitions. SEMs are shown by grey
as §2, with “Trial II—Trial I paired with a 20 ms gap embedded into background noise and presented 100 ms before the startle. Inter-trial intervals were pseudo randomized between 10 and 17 sec.” left out

[2] = Acoustic startle reflex (startle input/output function); type: in vivo, mouse; details: in 6 out of 7 mice tested, FIG. 14A, 30 min after drug administration
Protocol: as §1
as §2, with “Trial I—The acoustic startle (110 dB SPL, 20 ms duration, wideband noise) imbedded in continuous background noise (65 dB SPL, third octave, centered at 10, 12.5, 16, 20, 25, and 31.5 kHz). Trial II—Trial I paired with a 20 ms gap embedded into background noise and presented 100 ms before the startle. Inter-trial intervals were pseudo randomized between 10 and 17 sec.” left out

[3] = Gap detection performance (gap-induced suppression of acoustic startle) in mice; type: in vivo, mouse; details: 7 mice, FIG. 14B, 30 min after drug administration
Protocol: as §1
as §2, with “Trial I—The acoustic startle (110 dB SPL, 20 ms duration, wideband noise) imbedded in continuous background noise (65 dB SPL, third octave, centered at 10, 12.5, 16, 20, 25, and 31.5 kHz). Trial II—Trial I paired with a 20 ms gap embedded into background noise and presented 100 ms before the startle. Inter-trial intervals were pseudo randomized between 10 and 17 sec.” left out

[4] = Gap detection performance for behavioral assessment of tinnitus in the tinnitus mouse model; type: in vivo; details: one mouse, FIG. 17
Protocol: Mice were assessed for tinnitus 3 months after exposure. The ability of mice to detect a gap of silence preceding the startle stimulus was determined using commercial hardware/software equipment from Kinder Scientific, Inc. Mice were placed in a small restrainer situated on a plate with a pressure sensor. Any animal motion was detected by the sensor which measured its amplitude and stored data on the computer hard drive. Kinder Scientific software was used to generate a sequence of stimulus trials including a startle stimulus presented alone (STARTLE) and a startle stimulus paired with a gap (GAP+STARTLE) embedded into continuous background noise. The background consisted of narrow-band (1/3 octave) noise centered at six different frequencies (10, 12.5, 16, 20, 25, and 31.5 kHz). […]
Therefore, the data in each session were statistically analyzed to remove outliers (Grubbs' test for outliers). […] To calculate the GAP+STARTLE/STARTLE ratio we calculated the mean for all STARTLE values. […]
The presence of tinnitus in each mouse is assessed by pre-pulse inhibition of the acoustic startle reflex using the procedure developed by Turner et al. Turner et al., Behav Neurosci 120:188-195 (2006). […] The inventor measured the ratio of the startle response amplitude when preceded by a gap of silence over the startle response amplitude without preceded gap. […]

**Q.** For `N[C@@]1(C(=O)O)CC[C@H]2[C@H](C(=O)O)[C@H]21` [LY354740, (1S,2S,5R,6S)-2-Aminobicyclo[3.1.0]hexane-2,6-dicarboxylic acid], which “duration of suppression of spontaneous activity” value (IC neurons; injected IV) is on record?
**A.** Its value is “several tens of minutes”.

**Q.** What about the “time after injection to suppression of spontaneous activity” value (IC neurons; injected IV) of the same molecule?
**A.** Its value is “Several seconds”.

**Q.** And the “effect on spontaneous activity in IC neurons” value (IC neurons; injected IV, vast majority of IC neurons, awake mice)?
**A.** The value was “near complete suppression”.

**Q.** What about the “time after systemic drug administration at which background firing was suppressed” value (IC neurons; single IC neuron, FIG. 12) of the same molecule?
**A.** The value was “About 5 min”.

**Q.** And the “time until rate of background activity almost recovered to pre-drug level” value (IC neurons; single IC neuron, FIG. 12)?
**A.** Its value is “about 2 hours”.

**Q.** What about the “effect on sound-evoked firing” value (IC neurons; single IC neuron, FIG. 12, systemic administration) of the same molecule?
**A.** The value was “unaffected”.

**Q.** And the “effect on spontaneous activity in auditory neurons” value (IC neurons; systemic activation of group II mGluRs, FIG. 10, 15)?
**A.** The value was “dramatically suppressed”.

**Q.** What about the “effect on sound evoked activity” value [1] of the same molecule?
**A.** Its value is “did not change or slightly increased”.

**Q.** What about the “increase of magnitude of startle responses” value [2] of the same molecule?
**A.** The value was “at least 20%”.

**Q.** And the “effect on gap detection performance” value [3]?
**A.** The value was “not affected”.

**Q.** What about the “gap detection performance after systemic injection” value [4] of the same molecule?
**A.** The value was “improvement of gap detection in this mouse to the control level”.
